From patent US7232812B2, “Substituted azetidine compounds, their preparation and use as medicaments” (Laboratorios de Dr. Esteve S.A., priority 2004, dated 2007)

How the values were obtained:
Assay type in all cases: in vivo
[1] = system: rats; assay: Analgesia test in rats (carrageenan, thermal stimulus); details: Rattus norvegicus, oral route, 2 hours after administration, read-out: ED50 analgesic activity
Protocol: III: Analgesia Test in Rats
The inventive compounds are tested for analgesic activity as described above is carried out as described in the publication of K. Hargreaves et al., Pain, 32, 77–88, (1988). The respective part of the description is hereby incorporated by reference and forms part of the disclosure.
The rats are transferred to the experimentation laboratory, where they remain in groups of 5, in makrolon cages with a barred floor to avoid coprophagy. At the beginning of the experiment, water and food were removed, and animals were adequately weighed and marked.
Each rat receives via subplantar injection 0.1 ml of sterile saline solution into the left hind paw, followed by 0.1 ml of a 2% (weight/volume) carrageenan suspension in sterile saline solution into the right hind paw.
Two hours after the subplantar injections of carrageenan and vehicle, each rat receives by oral route the compounds to be tested, suspended in 5% (weight/volume) gum arabic, administered at 10 ml per kg of body weight.
Two hours after the administration of the compounds to be tested, the values for analgesic activity are determined. To this purpose, the rats are transferred to the methacrylate chambers of an analgesimeter provided with a glass floor. […]

[2] = system: rats; assay: Test for activity against edema in rats (carrageenin paw); details: Rattus norvegicus, oral route
Protocol: IV. Test for Activity Against Edema in Rats
The test for activity against edema is carried out as described in the publication of Winter et al., Proc. Soc. Exp. Biol. Med. 111, 544–547, (1962). The respective part of the description is hereby incorporated by reference and forms part of the present disclosure.
At the beginning of each experimental session the rats are deprived of food, and kept in cages within groups of 5 animals, the cages being fitted with a grating on the floor to prevent coprophagy. After a period of 24 hours without food, the animals are marked in a suitable way, weighed and hydrated via oral administration of 30 ml/kg body weight of tap water. Half an hour after the hydratisation, the compounds to be tested are administered via oral route, in an amount of 10 ml/kg body weight as a suspension in gum arabic at 5% (weigh/volume). One hour after administration of the compounds the animals receive 0.1 ml of the inflammation causing agent (carrageenin 1% weight/volume, in sterile solution), injected via subplantar route into the right hind paw of the rats. Immediately after the carrageenin injection the volume of the injected paw is determined using a plethysmometer. The readings are expressed in ml. Readings of the volume of the paw are taken every hour after administration of the carrageenin for 7 hours.

[3] = system: PGE2 production; assay: PGE2 production in rat gastric mucosa; details: rats, oral route, read-out: PGE2 gastric mucose ED50
Protocol: (§1) VI: PGE2 Production in Rat Inflammatory Exudate and Gastric Mucosa
(§2) The PGE2 production in rat inflammatory exudate and gastric mucosa is carried out as described in the publication of O Tofanetti et al., “Effect of nimesulide on cyclo-oxygenase activity in rat gastric mucosa and inflammatory exudate”, Med Sci Res 17, 745–746 (1989). The respective part of the description is hereby incorporated by reference and forms part of the present disclosure.
(§3) For this text 6 male wistar rats (Interfauna-St Feliú de Codines, Barcelona) of approximately 200 g (each approximately 6 weeks of age) are used. The compounds to be tested are administered via oral route in gum Arabic at 5% (weight/volume) at a rate of 10 ml/kg.
(§4) One hour after administration of the compounds and under halothane anaesthesia, each rat is implanted subcutaneously in the interescapular area a 40×15×5 mm polyester sponge, soaked in a 0.5% suspension of carrageenan. […]
(§5) The rats's stomachs are removed and the gastric mucosa is detached from the underlying layers and by means of a 10 mm diameter die, mucosa samples from an area between the gastric corpus and pyloric antrum are taken. […] PGE2 concentrations from the inflammatory exudates and the gastric mucosa are determined by means of immunoassay reagents of Cayman Chemical kit, Ann Arbor, Mich., U.S.A. (Catalogue number: 514010) according to the manufacturer's instructions.

[4] = system: PGE2 production; assay: PGE2 production in rat inflammatory exudate; details: rats, oral route, carrageenan sponge exudate, read-out: PGE2 Inflam. exudade ED50
Protocol: as §1, §2, §3, §4, §5

CC(C)(C)c1cc(C(=O)N2CC(O)C2)cc(C(C)(C)C)c1O [Example 1, (3,5-di-tert-butyl-4-hydroxy-phenyl)-(3-hydroxy-azetidin-1-yl)-methanone] gave an ED50 [1] of 0.4 mg/kg, an ED50 [2] of 3 mg/kg and an ED50 [3] of 0.16 mg/kg. The ED50 [4] was 0.28 mg/kg.
For CC1(O)CN(C(=O)c2cc(C(C)(C)C)c(O)c(C(C)(C)C)c2)C1 [Example 3, (3,5-di-tert-butyl-4-hydroxy-phenyl)-(3-hydroxy-3-methyl-azetidin-1-yl)-methanone], the ED50 [1] was 0.14 mg/kg, the ED50 [2] was 58 mg/kg and the ED50 [3] was 7.3 mg/kg. It also gave an ED50 [4] of 0.5 mg/kg.
CC(C)(C)c1cc(CN2CC(O)C2)cc(C(C)(C)C)c1O [Example 17, 1-(3,5-di-tert-butyl-4-hydroxy-benzyl)-azetidin-3-ol] gave an ED50 [2] of 62 mg/kg.
